Experimental data published in ChEMBL document CHEMBL1148501, “Synthesis of pyrazoles and isoxazoles as potent alpha(v)beta3 receptor antagonists” (Bioorg Med Chem Lett, 2006).

Assays:
[1] = in vivo; details: rat
[2] = in vivo; details: rat, po

## Cn1nc(CC(CC(=O)O)c2ccc3c(c2)OCO3)cc1OCCc1ccc2c(n1)NCCC2 (configuration not stated)
[1]
  half-life: 4.9 h
[2]
  bioavailability: 95%
